Assay results as given in patent US6399618B1, “Compositions and methods for modulating sexual activity” (priority 1997, dated 2002).
Structures can show the parent of a compound that is named as a salt. Marks after values point to notes of the source that are not given here.

Columns and labels:
male rats = experiment: Antagonism of XVIb-induced erections by comparative compounds in rats; assay type: in vivo, SD rats; details: XVIb 16 mg/kg ip; n=6
Method: Male SD rats (300-500 g; n=6 per group) were injected with (±)-Pindolol, scopolamine, haloperidol, or ketanserin, 30 minutes prior to injection of a single dose of XVIb (16 mg/kg, ip) or saline.

male primates = experiment: Primate sexual behavior, isolated observation study; assay type: in vivo, Macaca fascilaris; details: for # of behavioral Purse Lip Gesture / # of behavioral Yawning / Grade 0 (glans hidden from view) / Grade 1 (glans clearly visible) / Grade 2 (penis extended) / Grade 3 (full erection) / Grade 4 (erection with masturbation) / Grade 5 (erection with masturbation and ejaculation): isolation, 1 hour, n=6
Method: Adult male Macaca fascilaris (3.8-8 kg, n=6) were injected (0.1-10.0 mg/kg; ip; 0.5 mL/kg body weight) with either saline or compound XVIb and observed 10 minutes later for behavioral responses and locomotion for 1 hour. Monkeys used for testing were injected and observed in separate locations remote from housing environment. Each monkey received a dose of XVIb at 72 hour intervals.
In Table 4, the effect of compound XVIb on erectile responses is reported for male primates observed in isolation. Data are expressed as mean (sem, standard error of measurements) for 6 test animals. Penile responses were scored every 10 seconds for 1 hour according to the following scale: Grade 0=glans hidden from view, Grade 1=glans clearly visible, Grade 2=penis extended, Grade 3=full erection, Grade 4=erection with masturbation, Grade 5=erection with masturbation and ejaculation. In Table 4, data marked with an asterisk “*” indicate a significant difference from saline as determined by repeated measures ANOVA and Dunnetts test for multiple comparisons (α<0.05). The data in Table 4 are reported as % genital observations.

CN1CCN(C(=O)Cc2ccc3ccccc3c2)CC1 [Compound XVIb, 1-Methyl-4(2-naphthaleneacetyl)piperazine monohydrochloride]
erections with XVIb without antagonist (pindolol comparison) (male rats): 7.8±1.4 erections/60 minutes
erections with XVIb without antagonist (scopolamine comparison) (male rats): 1.7 erections/60 minutes
# of behavioral Purse Lip Gesture (male primates; 0.1 mg/kg ip): 5.8 ± 3.9 #
# of behavioral Yawning (male primates; 0.1 mg/kg ip): 8.8 ± 4.5 #
Grade 0 (glans hidden from view) (male primates; 0.1 mg/kg ip): 81.8 ± 8.2 % genital observations
Grade 1 (glans clearly visible) (male primates; 0.1 mg/kg ip): 17.8 ± 7.9 % genital observations
Grade 2 (penis extended) (male primates; 0.1 mg/kg ip): 0.4 ± 0.3 % genital observations
Grade 3 (full erection) (male primates; 0.1 mg/kg ip): 0 ± 0 % genital observations
Grade 4 (erection with masturbation) (male primates; 0.1 mg/kg ip): 0 ± 0 % genital observations
Grade 5 (erection with masturbation and ejaculation) (male primates; 0.1 mg/kg ip): 0 ± 0 % genital observations
# of behavioral Purse Lip Gesture (male primates; 0.3 mg/kg ip): 10.2 ± 3.9 #
# of behavioral Yawning (male primates; 0.3 mg/kg ip): 11.7 ± 3.8 #
Grade 0 (glans hidden from view) (male primates; 0.3 mg/kg ip): 67.3 ± 12.2 % genital observations
Grade 1 (glans clearly visible) (male primates; 0.3 mg/kg ip): 32.8 ± 11.5 % genital observations
Grade 2 (penis extended) (male primates; 0.3 mg/kg ip): 0.5 ± 0.5 % genital observations
Grade 3 (full erection) (male primates; 0.3 mg/kg ip): 0 ± 0 % genital observations
Grade 4 (erection with masturbation) (male primates; 0.3 mg/kg ip): 0 ± 0 % genital observations
Grade 5 (erection with masturbation and ejaculation) (male primates; 0.3 mg/kg ip): 0 ± 0 % genital observations
# of behavioral Purse Lip Gesture (male primates; 1.0 mg/kg ip): 7.5 ± 3.4 #
# of behavioral Yawning (male primates; 1.0 mg/kg ip): 11.3 ± 2.5 #
Grade 0 (glans hidden from view) (male primates; 1.0 mg/kg ip): 72.0 ± 12.0 % genital observations
Grade 1 (glans clearly visible) (male primates; 1.0 mg/kg ip): 26.6 ± 10.6 % genital observations
Grade 2 (penis extended) (male primates; 1.0 mg/kg ip): 1.4 ± 1.4 % genital observations
Grade 3 (full erection) (male primates; 1.0 mg/kg ip): 0 ± 0 % genital observations
Grade 4 (erection with masturbation) (male primates; 1.0 mg/kg ip): 0 ± 0 % genital observations
Grade 5 (erection with masturbation and ejaculation) (male primates; 1.0 mg/kg ip): 0 ± 0 % genital observations
# of behavioral Purse Lip Gesture (male primates; 3.0 mg/kg ip): 14.0 ± 8.3 #
# of behavioral Yawning (male primates; 3.0 mg/kg ip): 13 ± 3.4 #
Grade 0 (glans hidden from view) (male primates; 3.0 mg/kg ip): 56.8 ± 7.8 % genital observations
Grade 1 (glans clearly visible) (male primates; 3.0 mg/kg ip): 42.1 ± 8.3 % genital observations
Grade 2 (penis extended) (male primates; 3.0 mg/kg ip): 1.7 ± 1.4 % genital observations
Grade 3 (full erection) (male primates; 3.0 mg/kg ip): 0.3 ± 0.3 % genital observations
Grade 4 (erection with masturbation) (male primates; 3.0 mg/kg ip): 0 ± 0 % genital observations
Grade 5 (erection with masturbation and ejaculation) (male primates; 3.0 mg/kg ip): 0 ± 0 % genital observations
# of behavioral Purse Lip Gesture (male primates; 10.0 mg/kg ip): 33 ± 14* #
# of behavioral Yawning (male primates; 10.0 mg/kg ip): 14.0 ± 4.0 #
Grade 0 (glans hidden from view) (male primates; 10.0 mg/kg ip): 24.5 ± 7.6 % genital observations
Grade 1 (glans clearly visible) (male primates; 10.0 mg/kg ip): 72.1 ± 7.7* % genital observations
Grade 2 (penis extended) (male primates; 10.0 mg/kg ip): 2.5 ± 1.0 % genital observations
Grade 3 (full erection) (male primates; 10.0 mg/kg ip): 0.9 ± 0.6 % genital observations
Grade 4 (erection with masturbation) (male primates; 10.0 mg/kg ip): 0 ± 0 % genital observations
Grade 5 (erection with masturbation and ejaculation) (male primates; 10.0 mg/kg ip): 0 ± 0 % genital observations
grade 1 penile erections (in words) (male primates; 0.1-10 mg/kg, primates observed in isolation, significance only at the highest dose): dose dependently (0.1-10 mg/kg) increased grade 1 penile erections
Advanced grades of penile erection (grades 2-5) (in words) (male primates; any dose (0.1-10 mg/kg)): not significantly affected at any dose
